The record followed here is ChEMBL document CHEMBL5247641, “Discovery of Potent DYRK2 Inhibitors with High Selectivity, Great Solubility, and Excellent Safety Properties for the Treatment of Prostate Cancer” (J Med Chem, 2023).

Data set [1] deals with DU-145. In words: Antiproliferative activity against human DU-145 cells assessed as inhibition of clone formation at 1 to 8 uM incubated for 2 weeks by crystal violet staining based assay. Conditions: dose 1-8 µM. The format is functional, cell-based.
Data set [2] deals with DU-145. Nature of the data set: Induction of cell cycle arrest in human DU-145 cells assessed as accumulation of cells at S phase at 1 uM incubated for 24 hrs by propidium iodide based flow cytometric analysis (Rvb= 29.02%). The format is functional. On the technique in general: In flow cytometry, cells or beads pass a laser one at a time.
Data set [3] concerns DU-145. Nature of the data set: Induction of cell cycle arrest in human DU-145 cells assessed as accumulation of cells at S phase at 2 uM incubated for 24 hrs by propidium iodide based flow cytometric analysis (Rvb= 29.02%). The format is functional.
Data set [4] has as its system CWR22R. Nature of the data set: Induction of cell cycle arrest in human 22Rv1 cells assessed as accumulation of cells at G2 phase at 1 uM incubated for 24 hrs by propidium iodide based flow cytometric analysis (Rvb=24.21 %). The format is functional.
In data set [5] the test system is CWR22R. In words: Induction of apoptosis in human 22Rv1 cells assessed as apoptotis rate at 2 uM incubated for 24 hrs by Annexin V-FITC and PI staining based flow cytometry (Rvb= 3.08%). The format is functional.
Data set [6] can be described thus: Acute toxicity in ICR mouse assessed as change in kidney weight at 1000 to 10000 mg/kg,po and measured after 14 days. The format is organism-based. Conditions: in vivo, 336 h, dose 1000-10000 mg/kg, time 14 day.
Data set [7] in a line: Acute toxicity in ICR mouse assessed as appearance of lesions in spleen at 5000 to 10000 mg/kg,po and measured after 14 days by H and E staining based microscopic analysis. The format is organism-based. Conditions: in vivo, 336 h, dose 5000-10000 mg/kg, time 14 day.

The source made the active and inactive calls. The calls are words filed in the database; no cut-off is given here.

As to `Cl.O=C(c1ccc(Nc2ncc(F)c(-c3ccc4scnc4c3)n2)nc1)N1CCNCC1`, the result with DU-145 [1] was Active. The Activity is given as 28.05% in the data set on DU-145 [2]; 26.15% in the data set with DU-145 [3]; 23.01% with CWR22R [4]; 11.25% in the data set with CWR22R [5]; “Non-Toxic” in data set [6]; “Non-Toxic” in data set [7].
